Results published in patent US8389554B2, “Imidazothiadiazole derivatives” (Merck Patent Gesellschaft mit Beschränkter Haftung, priority 2008, dated 2013).
pIC50: −log10 of the molar value.

Molecular target: T1, GST-ALK5 (Homo sapiens, UniProt P36897)
T1 sequence (P36897 34-503): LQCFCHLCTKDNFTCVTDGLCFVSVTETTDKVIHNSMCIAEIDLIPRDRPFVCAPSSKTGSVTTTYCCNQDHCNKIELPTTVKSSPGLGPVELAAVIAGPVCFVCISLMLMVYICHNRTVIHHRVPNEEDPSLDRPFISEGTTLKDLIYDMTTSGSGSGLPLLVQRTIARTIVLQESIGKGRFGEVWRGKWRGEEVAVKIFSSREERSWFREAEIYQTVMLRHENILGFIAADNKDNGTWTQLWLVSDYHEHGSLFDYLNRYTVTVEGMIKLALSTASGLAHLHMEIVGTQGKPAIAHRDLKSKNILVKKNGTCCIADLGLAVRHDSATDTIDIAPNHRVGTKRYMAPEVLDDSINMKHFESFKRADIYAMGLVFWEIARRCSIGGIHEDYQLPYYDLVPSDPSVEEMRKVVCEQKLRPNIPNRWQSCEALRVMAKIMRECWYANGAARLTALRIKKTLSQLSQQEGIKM
Assay: In-vitro (enzyme) flashplate kinase assay, inhibition of TGF-beta receptor I kinase
Type: biochemical
Details: 384-well flashplate, GST-ALK5, GST-SMAD2 substrate, 3 mM ATP, 30° C., 45 min
Experimental: In-Vitro (Enzyme) Assay for Determination of the Efficacy of Inhibitors of the Inhibition of TGF-Beta-Mediated Effects
The kinase assay was carried out as 384-well flashplate assay. 31.2 nM of GST-ALK5, 439 nM of GST-SMAD2 and 3 mM of ATP (with 0.3 μCi of ^33P-ATP/well) were incubated in a total volume of 35 μl (20 mM of HEPES, 10 mM of MgCl2, 5 mM of MnCl2, 1 mM of DTT, 0.1% of BSA, pH 7.4) without or with test substance (5-10 concentrations) at 30° C. for 45 min. The reaction was stopped using 25 μl of 200 mM EDTA solution, filtered with suction at room temperature after 30 min, and the wells were washed with 3 times 100 μl of 0.9% NaCl solution. Radioactivity was measured in the TopCount. The IC50 values were calculated using RS1 (Table 1). Above and below, all temperatures were indicated in ° C.

Row | SMILES | pIC50
1 | COc1cc(-c2cnc3sc(NCCc4ccccn4)nn23)cc(OC)c1OC [No 20, (2-Pyridin-2-yl-ethyl)-[5-(3,4,5-trimethoxy-phenyl)-imidazo[2,1-b][1,3,4]thiadiazol-2-yl]-amine] | 6.57
2 | Cc1cc(-c2cnc3sc(NCc4ccco4)nn23)cc(C)c1O [No 38, 4-{2-[(Furan-2-ylmethyl)-amino]-imidazo[2,1-b][1,3,4]thiadiazol-5-yl}-2,6-dimethyl-phenol] | 6.62
3 | CC(=O)c1cccc(-c2cnc3sc(NCCN4CCOCC4)nn23)c1 [No 158, 1-{3-[2-(2-Morpholin-4-yl-ethylamino)-imidazo[2,1-b][1,3,4]thiadiazol-5-yl]-phenyl}-ethanone] | 6.11
4 | COc1cc(-c2cnc3sc(NCc4cccs4)nn23)cc(OC)c1OC [No 165, Thiophen-2-ylmethyl-[5-(3,4,5-trimethoxy-phenyl)-imidazo[2,1-b][1,3,4]thiadiazol-2-yl]-amine] | 6.48
5 | COc1cc(-c2cnc3sc(NCC(C)C)nn23)cc(OC)c1OC [No 266, Isobutyl-[5-(3,4,5-trimethoxy-phenyl)-imidazo[2,1-b][1,3,4]thiadiazol-2-yl]-amine] | 6.09
6 | COc1cc(-c2cnc3sc(NCC4CCOCC4)nn23)cc(OC)c1OC [No 274, (Tetrahydro-pyran-4-ylmethyl)-[5-(3,4,5-trimethoxy-phenyl)-imidazo[2,1-b][1,3,4]thiadiazol-2-yl]-amine] | 6.09
7 | COc1cc(-c2cnc3sc(NCCOc4ccccc4)nn23)cc(OC)c1OC [No 277, (2-Phenoxy-ethyl)-[5-(3,4,5-trimethoxy-phenyl)-imidazo[2,1-b][1,3,4]thiadiazol-2-yl]-amine] | 6.11
8 | COc1cc(-c2cnc3sc(NCc4cccs4)nn23)ccc1O [No 307, 2-Methoxy-4-{2-[(thiophen-2-ylmethyl)-amino]-imidazo[2,1-b][1,3,4]thiadiazol-5-yl}-phenol] | 6.13
9 | CC(=O)c1cccc(-c2cnc3sc(NCCc4ccncc4)nn23)c1 [No 360] | 6.15
10 | COc1cc(-c2cnc3sc(NC4CCC(O)CC4)nn23)cc(OC)c1OC (stereo not shown) [No 363, 4-[5-(3,4,5-Trimethoxy-phenyl)-imidazo[2,1-b][1,3,4]thiadiazol-2-ylamino]-cyclohexanol] | 6.24
11 | COc1cc(-c2cnc3sc(NCc4cccnc4)nn23)cc(OC)c1OC [No 416, Pyridin-3-ylmethyl-[5-(3,4,5-trimethoxy-phenyl)-imidazo[2,1-b][1,3,4]thiadiazol-2-yl]-amine] | 6.17
12 | COc1cc(-c2cnc3sc(NCCc4ccncc4)nn23)cc(OC)c1OC [No 442, (2-Pyridin-4-yl-ethyl)-[5-(3,4,5-trimethoxy-phenyl)-imidazo[2,1-b][1,3,4]thiadiazol-2-yl]-amine] | 6.32
13 | COc1cc(-c2cnc3sc(NCCCO)nn23)cc(OC)c1OC [No 456, 3-[5-(3,4,5-Trimethoxy-phenyl)-imidazo[2,1-b][1,3,4]thiadiazol-2 - ylamino]-propan-1-ol] | 6.13
14 | COc1cc(-c2cnc3sc(NCCc4ccc(S(N)(=O)=O)cc4)nn23)cc(OC)c1OC [No 464, 4-{2-[5-(3,4,5-Trimethoxy-phenyl)-imidazo[2,1-b][1,3,4]thiadiazol-2-ylamino]-ethyl}-benzenesulfonamide] | 6.80
15 | CC(=O)c1cccc(-c2cnc3sc(NCCc4ccc(S(N)(=O)=O)cc4)nn23)c1 [No 490, 4-{2-[5-(3-Acetyl-phenyl)-imidazo[2,1-b][1,3,4]thiadiazol-2-ylamino]-ethyl}-benzenesulfonamide] | 6.44
16 | COc1cc(-c2cnc3sc(NCCN4CCOCC4)nn23)cc(OC)c1OC [No 495, (2-Morpholin-4-yl-ethyl)-[5-(3,4,5-trimethoxy-phenyl)-imidazo[2,1-b][1,3,4]thiadiazol-2-yl]-amine] | 6.31
